# Test results published in patent US9216181B2 (Southwest Research Institute, priority 2011, dated 2015).
# Assays:
# murine calvaria bone = assay: Anabolic assay using murine calvaria, histology (Study II); assay type: cell-based, mouse; conditions: calvaria of 4 day old pups, 5-20 μM, day 4 and day 7, 10× microscopy
# Protocol: To investigate the biological effects on bone of the compounds from the PCR assays a number of assays were performed using murine calvaria bone as follows. Following procedures similar to those outlined above in Study I, murine calvaria bone was removed from 4 day old pups form CD-1 time pregnant mice from Harlan (15 day gestation at time of arrival). The pups were decapitated with scissors after dipping the pups in 95% ethanol. The scalp was then removed. The heads were placed in a Petri dish with BGJ medium. The calvaria bones were cut using curved scissors to make a cut along the suture of the calvaria bone and the two parts were carefully removed from the brain. The calvaria were trimmed avoiding the suture area. The collected tissue was placed into media (3 bones per group) including BGJ+L-Glutamine with 1% Pen/Strep and 1% BSA. The dish including the bones was placed into a 37° C. and 5% CO2 incubator.
# The selected compounds were prepared in a solution of dimethyl sulfoxide (DMSO) to form stock solutions of each compound, with the exception of terfenadine, which was prepared in ethanol. Specifically, a 10 mM stock solution was prepared for PS1, a 25 mM stock solution was prepared for carebastine and a 50 mM stock solution was prepared for ebastine, #6 terfenadine, fexofenadine and astemizole. […]
# BMP-2 [1] = assay: Study II real time PCR, BMP-2 up-regulation in mesenchymal stem cells; assay type: cell-based, human; conditions: hMSC, 24 hour, 2.5, 5 and 10 μM
# Protocol: The testing procedure follows.
# Cells based assays are done using 6 wells tissue culture plates, seeded with human mesenchymal stem cells (MSC) from Lonza, culture at 80% density. After seeding cells are treated with selected compounds at 10 μM, 5 μM and 2.5 μM for a 24 hour period, mRNA is collected using Qiagen kit RNAeasy kit and cDNA is prepared with same Qiagen kit, RT-PCR is done using kit from SABiosciences to measure gene expression for BMP2, 4 and 7 and run in Applied Biosystems Step One Plus. The protocol for mRNA isolation is described below.
# Human mesenchymal stem cell growth medium passage 3 plated in a 6 well plate at 2.5×10^5 cells/well in hMSC Basal Medium+BulletKit (50 ml Growth Supplement, 10 ml L-Glutamine and 0.5 ml Gentamicin Sulfate Amphotericin-B) for 24 hrs. The compounds to be tested were added and after 24 hrs the media was aspirated, rinsed well once with PBS, and aspirated again. 350 ul of Lysis Buffer was added and the cells were stored at −20° C.
# The lysate was homogenized by pipetting the lysate directly into a QIA shredder spin column placed in a 2-mL collection tube, and centrifuge for 2 min at full speed. 70% ethanol was added (1 vol. or […]) to the homogenized lysate (now at the bottom of the collection tube), and mixed well by pipetting. Up to 700 μL of the sample was transferred, including any precipitate that may have formed, to an RNeasy spin column placed in a 2-mL collection tube. This was centrifuged for 15 seconds at full speed. 700 μL of Buffer RW1 was added to the RNeasy spin column. This was centrifuged for 15 seconds at full speed to wash the spin column membrane.
# 500 μL of Buffer RPE was added to the RNeasy spin column and centrifuged for 15 seconds at full speed. The flow through was discarded. 500 μL of Buffer RPE was added to the RNeasy spin column and centrifuged for 2 minutes at full speed to wash the spin column membrane. The RNeasy spin column was removed from the collection tube and the flow-through was discarded.
# The RNeasy spin column was placed in a new 2-mL collection tube and centrifuged for 1 minute at full speed. The RNeasy spin column was removed from the collection tube, and the flow-through was discarded. The RNeasy spin column was placed in a new 1.5-mL collection tube. 30-50 μL of RNase-free water was added directly to the spin column membrane and this was centrifuged for 1 minute at full speed to elute the RNA.
# BMP2 = assay: Quantitative PCR (TaqMan, ΔΔCt) of BMP2 in human mesenchymal stem cells; assay type: cell-based; conditions: Homo sapiens, Mesenchymal stem cells; BMP2 mRNA, hMSC, 10 μM, vs untreated, 18S reference; positive control compounds (Table 1); read-out: q-PCR Fold increase
# Protocol: Human mesenchymal stem cells (LONZA, Catalog PT2501) were maintained in Mesenchymal stem cells basal media (MSCBM CAT#PT-3238). Early passage cells were plated in triplicate at 2×10^4 cells/cm^2 using six well tissue culture plates and grown in humidified 5% CO2 at 37° C. for 24 hours. Spent media was replaced by assay media of drugs to be tested in same media as above at 10 μM final concentration. Untreated cells were used as the control group. Total RNA were prepared using either TRI Reagent (Ambion, Cat. 9738), for subsequent TaqMan gene expression qPCR of BMP2. RNA concentration and integrity was assessed by absorbance 260/280 and electrophoresis in 1% Agarose with formaldehyde loading dye. For TaqMan gene expression, cDNA was synthesized from 2 μg of total RNA using the High Capacity cDNA Reverse Transcription Kit (Applied Biosystems, Cat. 4368814). The resulting cDNA were diluted 1:100 for TaqMan and amplified by real-time quantitative PCR. Gene-specific fluorescent labeled TaqMan primers for FAM-BMP2 (Applied Biosystems, Hs00154192.m1) and TaqMan reference VIC-18S ribosomal RNA (Applied Biosystems, 4310893E) were used to target gene of interest. A cocktail of universal master mix (Applied Biosystems, 4369016) were prepared individually for both set of primers which contained Taq Polymerase, dNTPs, and buffer. Template cDNA's were added separately to respective individual wells in triplicate samples. The PCR were performed on StepOne Plus Real Time System instrument (Applied Biosystems). The amplification program consisted of 1 cycle of 95° C. with 10 minute hold (hot start) followed by 50 cycles of 95° C. with 15 second annealing hold and 1 minute 60° C. specified acquisition hold. The Ct value of endogenous reference gene (i.e. 18 s) was used to control for input RNA and then used to normalize target gene (i.e. BMP2) tested from the same cDNA sample to calculate the Δ Ct, and then calibrated to an internal reference sample. Change in gene expression was determined by the expression ΔΔCt relative method.
# 18 compounds were confirmed positive by the more stringent qPCR techniques. […] Included in the tables is the target or common medical use for each compounds.
# C3H10T1/2 cells = assay: Visual observation of morphological differentiation of C3H10T1/2 MSC; assay type: cell-based, mouse; conditions: enhanced medium withdrawn before addition
# Protocol: The C3H10T1/2 cells were grown in an enhanced growth medium of BGjb (Irvine Scientific, Santa Ana, Calif.).
# BMP-2 [2] = assay: Real time PCR of BMP-2 gene expression in human MSC (Cells-to-Ct); assay type: cell-based; conditions: BMP-2 mRNA, hMSC, 5-10 μM, 24 hours, vs untreated; positive control compounds (Table 1)
# Protocol: Early passage human mesenchymal stem cells (MSC) were thawed from one frozen cryo-vial and seeded into two T-75 tissue culture flasks and incubated at 37° C. for 48 hours in Alpha MEM with 10% FBS. After three days and one re-feeding, the cells were trypsinized and re-suspended in pre-warmed media at 5×10^4 cells/mL to provide 5,000 cells per well in a 96 well plate and incubated overnight at 37° C. in 5% CO2.
# Each well was washed in cold PBS, lysed at room temperature for five minutes, and stop reagent added to each well to stop the lysis reaction. The final lysate was kept cold at 4° C. and used immediately as the RNA template for the reverse transcription cDNA synthesis following the TAQMAN GENE EXPRESSION CELLS TO CT KIT instructions.
# The cDNA synthesis was prepared on a separate sterile 96-well PCR plate and performed on the Step One Plus Real Time PCR System instrument (Applied Biosystems) with the programming set at 37° C. for 60 minutes and an inactivation hold of 95° C. for five minutes. The final cDNA reaction was kept cold and used as the template for the TAQMAN GENE Real-Time PCR step following the recommended instructions for TAQMAN GENE EXPRESSION CELLS TO CT KIT assay. […] Template cDNA's were added separately to respective individual wells in replicate samples.
# The PCR was performed on the STEPONEPLUS Real-Time System instrument (Applied Biosystems). The amplification program consisted of 1 cycle of 95° C. with 10 minute hold (hot start) and followed by 50 cycles of 95° C. with 15-second annealing hold and 1-minute 60° C. specified acquisition hold.
# BMP-2 [3] = assay: BMP-2 fold change of JHU library compounds, confirmed by qPCR; assay type: cell-based, human; conditions: non-treated = 1.00
Structure (SMILES),"activity in bone calvaria assay / effect on BMP-2 gene expression, qualitative histology (murine calvaria bone)",fold change (PCR) (BMP-2 [1]) [fold],fold induction at 10 µM (BMP2),morphological changes by visual observation (C3H10T1/2 cells),RT PCR Fold increase (BMP-2 [2]) [fold],"fold induction at 10 µM (BMP-2 [3]; Homo sapiens, read-out: Fold change (BMP-2), control compounds at 10 μM)",Fold change (BMP-2) (BMP-2 [3]; JHU library compounds) [fold]
CC(C)(C(=O)O)c1ccc(C(=O)CCCN2CCC(OC(c3ccccc3)c3ccccc3)CC2)cc1 [Carebastine],relatively active,≤ 1,,,,,
CC[C@H](C)C(=O)O[C@H]1C[C@@H](C)C=C2C=C[C@H](C)[C@H](CC[C@@H]3C[C@@H](O)CC(=O)O3)[C@H]21 [Lovastatin],,,10.7,generated more elongated looking cells with slowed cell proliferation,59.9,18,182.00
